We go through four molecules from ChEMBL document CHEMBL5029144, “Positional Isomeric Effects on the Optical Properties, Multivalent Glycosidase Inhibition Effect, and Hypoglycemic Effect of Perylene Bisimide-deoxynojirimycin Conjugates” (J Med Chem, 2021).

The nature of data set [1]: Inhibition of green coffee beans alpha-galactosidase. Set-up: species or system Coffea arabica.
The nature of data set [2]: Inhibition of Helix pomatia beta-mannosidase.
A short description of data set [3]: Inhibition of Aspergillus niger alpha-glucosidase.
Data set [4] is described as follows: Inhibition of almond beta-glucosidase. Further details: species or system Prunus dulcis; call rule not given here.
For data set [5], the system named is Mus musculus. Description: Hypoglycemic effect in maltose treated C57BL-6J mouse assessed as reduction in postprandial blood glucose level at 2 mg/kg, po measured after 30 mins. The data set is classed as functional. Set-up: scale not given: the % may be the effect or the level left. The note with it: 0.5 h.
Data set [6] can be described thus: Inhibition of Escherichia coli beta-galactosidase.
The subject of data set [7] is Mus musculus. Description: Hypoglycemic effect in maltose treated mouse C57BL-6J assessed as reduction in postprandial blood glucose level at 2 mg/kg, po measured after 15 mins. It counts as functional. Set-up: scale not given: the % may be the effect or the level left. The note with it: 0.25 h.
Data set [8] has as its system Mus musculus. As to the kind of experiment: Hypoglycemic effect in maltose treated mouse C57BL-6J assessed as reduction in postprandial blood glucose level at 1 mg/kg, po measured after 15 mins. It counts as functional. Further details: scale not given: the % may be the effect or the level left. Particulars: 0.25 h.
The subject of data set [9] is Mus musculus. Description: Hypoglycemic effect in maltose treated po dosed C57BL-6J mouse assessed as reduction in postprandial blood glucose level measured upto 180 mins. The data set is classed as functional, organism-based. The note with it: time min <=180.
Data set [10] is described as follows: Toxicity in C57BL-6J mouse assessed as heart pathological change at 2 mg/kg, po measured after 10 days by hematoxylin and eosin staining analysis. The data set is classed as organism-based. The note with it: in vivo, 240 h, time 10 day.
The target in data set [11] is T1, Alpha-mannosidase (Canavalia ensiformis) (UniProt C0HJB3).
T1 sequence (whole entry): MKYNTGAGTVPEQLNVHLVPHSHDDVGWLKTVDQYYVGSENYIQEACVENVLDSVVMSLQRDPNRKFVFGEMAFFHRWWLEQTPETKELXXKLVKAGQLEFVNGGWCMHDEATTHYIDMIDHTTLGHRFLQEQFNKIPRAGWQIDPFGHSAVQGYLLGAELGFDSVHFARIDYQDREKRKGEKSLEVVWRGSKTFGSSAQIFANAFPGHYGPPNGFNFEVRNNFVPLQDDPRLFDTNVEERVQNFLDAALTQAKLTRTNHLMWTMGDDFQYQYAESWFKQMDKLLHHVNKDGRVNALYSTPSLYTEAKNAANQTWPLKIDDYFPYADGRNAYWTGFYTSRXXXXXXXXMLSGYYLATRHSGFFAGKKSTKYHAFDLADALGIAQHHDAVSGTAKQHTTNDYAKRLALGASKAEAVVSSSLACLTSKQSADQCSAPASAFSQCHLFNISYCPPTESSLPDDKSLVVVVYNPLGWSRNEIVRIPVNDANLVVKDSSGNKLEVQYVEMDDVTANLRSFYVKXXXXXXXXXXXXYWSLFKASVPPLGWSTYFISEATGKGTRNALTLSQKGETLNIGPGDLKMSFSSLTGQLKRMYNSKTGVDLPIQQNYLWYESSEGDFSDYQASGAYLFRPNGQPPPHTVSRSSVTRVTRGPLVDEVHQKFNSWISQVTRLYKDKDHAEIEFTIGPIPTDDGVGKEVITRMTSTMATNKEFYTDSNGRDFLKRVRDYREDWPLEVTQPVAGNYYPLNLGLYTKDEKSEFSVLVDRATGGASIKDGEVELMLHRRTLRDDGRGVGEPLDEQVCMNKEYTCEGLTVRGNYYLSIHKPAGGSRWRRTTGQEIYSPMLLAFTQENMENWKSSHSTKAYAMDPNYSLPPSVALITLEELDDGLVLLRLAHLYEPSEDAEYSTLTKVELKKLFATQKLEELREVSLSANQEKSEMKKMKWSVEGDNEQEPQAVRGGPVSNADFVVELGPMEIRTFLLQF
As to the kind of experiment: Potency index, ratio of DNJ-1 Kd to test compound Kd for inhibition of Jack bean alpha-mannosidase.

The test system of data set [12] is Aspergillus niger. As to the kind of experiment: Potency index, ratio of DNJ-1 Kd to test compound Kd for inhibition of Aspergillus niger alpha-glucosidase.
Data set [13] in a line: Toxicity in C57BL-6J mouse assessed as increase in body weight at 2 mg/kg, po measured upto 30 days. It counts as organism-based. The note with it: in vivo, 720 h, time <=30 day.
Data set [14] can be described thus: Toxicity in C57BL-6J mouse assessed as lung pathological change at 2 mg/kg, po measured after 10 days by hematoxylin and eosin staining analysis. The data set is classed as organism-based. Particulars: in vivo, 240 h, time 10 day.
A short description of data set [15]: Inhibition of Aspergillus niger alpha-glucosidase by Lineweaver-Burk plot.
In data set [16] the target is T2, Alpha-mannosidase (Canavalia ensiformis, UniProt C0HJB3).
T2 sequence (C0HJB3 whole entry): T1 sequence (whole entry)
As to the kind of experiment: Inhibition of Jack bean alpha-mannosidase by Lineweaver-Burk plot.

A short description of data set [17]: Toxicity in C57BL-6J mouse assessed as spleen pathological change at 2 mg/kg, po measured after 10 days by hematoxylin and eosin staining analysis. Particulars: in vivo, 240 h, time 10 day. The data set is classed as organism-based.
The nature of data set [18]: Stability of the compound in pH 7 by UV-vis spectroscopy. It counts as physicochemical. Particulars: buffer.
In data set [19] the target is T1, Alpha-mannosidase (Canavalia ensiformis). Description: Potency index, ratio of miglitol Kd to test compound Kd for inhibition of Jack bean alpha-mannosidase.
The nature of data set [20]: Toxicity in C57BL-6J mouse assessed as increase in body weight at 2 mg/kg, po measured after 10 days. The data set is classed as organism-based. The note with it: in vivo, 240 h, time 10 day.
The species entered for data set [21] is Homo sapiens. As to the kind of experiment: (§1) Inhibition of mammalian Alpha-glucosidase (unknown origin) using PNPG as substrate pretreated for 20 mins followed by substrate addition measured after 26 mins.
Data set [22] can be described thus: as §1.
In data set [23] the test system is Aspergillus niger. As to the kind of experiment: Potency index, ratio of miglitol Kd to test compound Kd for inhibition of Aspergillus niger alpha-glucosidase.
The test system of data set [24] is Coffea arabica. Description: Potency index, ratio of miglitol Kd to test compound Kd for inhibition of Green coffee beans alpha-galactosidase.
Data set [25] can be described thus: Inhibition of Green coffee beans alpha-galactosidase by Lineweaver-Burk plot. Set-up: species or system Coffea arabica.
Data set [26] addresses T2, Alpha-mannosidase. Description: Inhibition of jack bean alpha-mannosidase.
Data set [27] can be described thus: Stability of the compound in pH 2 by UV-vis spectroscopy. It counts as physicochemical. Particulars: buffer.
For data set [28], the system named is Mus musculus. Description: Hypoglycemic effect in maltose treated mouse C57BL-6J assessed as reduction in postprandial blood glucose level at 0.5 mg/kg, po measured after 15 mins. Set-up: scale not given: the % may be the effect or the level left. It counts as functional. The note with it: 0.25 h.
Data set [29] in a line: Toxicity in C57BL-6J mouse assessed as liver pathological change at 2 mg/kg, po measured after 10 days by hematoxylin and eosin staining analysis. The data set is classed as organism-based. The note with it: in vivo, 240 h, time 10 day.
Data set [30] can be described thus: Toxicity in C57BL-6J mouse assessed as kidney pathological change at 2 mg/kg, po measured after 10 days by hematoxylin and eosin staining analysis. The data set is classed as organism-based. The note with it: in vivo, 240 h, time 10 day.
For data set [31], the system named is Mus musculus. Description: Hypoglycemic effect in maltose treated mouse C57BL-6J assessed as reduction in postprandial blood glucose level at 0.5 mg/kg, po measured after 30 mins. The data set is classed as functional. Set-up: scale not given: the % may be the effect or the level left.
Data set [32] concerns Mus musculus. As to the kind of experiment: Hypoglycemic effect in maltose treated mouse C57BL-6J assessed as reduction in postprandial blood glucose level at 1 mg/kg, po measured after 30 mins. It counts as functional. Set-up: scale not given: the % may be the effect or the level left. Particulars: 0.5 h.

By Kd is commonly meant the equilibrium constant for the complex coming apart. For the molecule `OCCN1C[C@H](O)[C@@H](O)[C@H](O)[C@H]1CO` [MIGLITOL], the Kd entry is “Not Active” in data set [1]; “Not Active” in [2]; 20.6 µM in [3]; “Not Active” in data set [4]; “Not Active” in [6]. For the same molecule, the Activity came out at 36.6% in [5], 40.4% in data set [7] and 27.3% in data set [8].
The Ki is the equilibrium dissociation constant of an inhibitor or competing ligand from its target. What is called IC50 is the midpoint of a concentration-inhibition curve. Consider `O=C1c2cc(Cl)c3c4c(Cl)cc5c6c(cc(Oc7ccc(OCc8cn(CCCN9C[C@H](O)[C@@H](O)[C@H](O)[C@H]9CO)nn8)cc7)c(c7c(Oc8ccc(OCc9cn(CCCN%10C[C@H](O)[C@@H](O)[C@H](O)[C@H]%10CO)nn9)cc8)cc(c2c37)C(=O)N1Cc1cn(CCCN2C[C@H](O)[C@@H](O)[C@H](O)[C@H]2CO)nn1)c64)C(=O)N(Cc1cn(CCCN2C[C@H](O)[C@@H](O)[C@H](O)[C@H]2CO)nn1)C5=O`, for which the Activity entry in data set [9] is “Dose-Dependent Effect”; in [10], “Non-Toxic”; in data set [13], “Toxic”; in data set [14] it was “Non-Toxic”; in [17] it was “Non-Toxic”; in data set [20] it was “Non-Toxic”. The Activity is 22.2% in [7]; 4% in data set [28]; “Non-Toxic” in data set [29]; “Non-Toxic” in data set [30]; 11.3% in [8]. The Ratio in data set [11] came out at 16300; in data set [12], 4.2; in data set [19] it was 6180; in data set [23] it was 1.4; in data set [24] it was 7.2. The Kd in [1] (read-out: Kd) is 1.93 µM; in data set [2], “Not Active”; in [3], 14.7 µM; in data set [4], “Not Active”; in data set [6], “Not Active”; in data set [26], 0.017 µM. Moreover, the inhibition constant (Ki) in [15] was found to be 14.7 µM; in data set [16], 0.017 µM; in data set [25] it was 1.03 µM. Besides, the Stability entry in [18] and in data set [27] was “Stable” throughout. The inhibition entry in data set [21] was “Dose-Dependent Effect”. Also, the IC50 in [22] amounted to 14.4 µM.
Turning to `O=C1c2cc(Cl)c3c4c(Oc5ccc(OCc6cn(CCCN7C[C@H](O)[C@@H](O)[C@H](O)[C@H]7CO)nn6)cc5)cc5c6c(cc(Oc7ccc(OCc8cn(CCCN9C[C@H](O)[C@@H](O)[C@H](O)[C@H]9CO)nn8)cc7)c(c7c(Cl)cc(c2c37)C(=O)N1Cc1cn(CCCN2C[C@H](O)[C@@H](O)[C@H](O)[C@H]2CO)nn1)c64)C(=O)N(Cc1cn(CCCN2C[C@H](O)[C@@H](O)[C@H](O)[C@H]2CO)nn1)C5=O`, the Activity result is “Dose-Dependent Effect” in data set [9]; “Non-Toxic” in data set [10]; “Toxic” in data set [13]; “Non-Toxic” in data set [14]; 15.2% in [31]; “Non-Toxic” in data set [17]. In addition, the Activity result in data set [20] is on record as “Non-Toxic”; in data set [5], 37.4%; in data set [7] it was 41.3%; in [32] it was 20.8%; in [28], 22.4%; in [29], “Non-Toxic”. For the same molecule, the Activity result is “Non-Toxic” in data set [30] and 29.2% in data set [8]. For the same molecule, the Ratio in data set [11] was 2310; in data set [12], 4.7; in data set [19], 876; in data set [23], 1.5; in data set [24], 9.7. Also, the dissociation constant Kd is 1.43 µM in [1] (read-out: Kd); “Not Active” in data set [2]; 13.1 µM in data set [3]; “Not Active” in [4]; “Not Active” in data set [6]; 0.12 µM in data set [26]. Moreover, the Ki was 13.1 µM in [15], 0.12 µM in data set [16] and 1.43 µM in data set [25]. In addition, the Stability result in data set [18] and in data set [27] was “Stable” throughout. Besides, in data set [21], the inhibition result is “Dose-Dependent Effect”. Also, the IC50 in data set [22] was 11.6 µM.
As to `OCc1cn(CCCN2C[C@H](O)[C@@H](O)[C@H](O)[C@H]2CO)nn1`, the Kd entry in data set [1] was “Not Active”; in data set [2] it was “Not Active”; in data set [3], 61.6 µM; in data set [4], “Not Active”; in data set [6] it was “Not Active”; in data set [26], 277 µM.
